SMILES strings stand for the structures. Several values for one entry are separate records, joined by “and”; a condition that tells them apart may be missing. Equal entries are not always repeated.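 48-hour exposure; five concentrations; linearly interpolated endpoints. At the GI50, growth is halved. TGI denotes the concentration required for complete inhibition of growth.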 A value given as a limit tells only on which side of the number the result lay.

Among the test systems are UO-31 renal; MOLT-4 leukemia; PC-3 prostate; MDA-MB-231 breast; A549 NSCLC; RPMI-8226 leukemia; SK-MEL-28 melanoma; MDA-MB-435; HCT-116 colon; UACC-62 melanoma.
Assay in all cases: NCI anticancer screen, dose series, 48 h

`Cn1ncc(-c2ccc3c(=O)[nH]nc(CN)c3c2)c1-c1c(F)c(Cl)cc(OC2CC2)c1C#N`: the GI50 with UO-31 renal is 12.4 µM and 10.3 µM; in the experiment with MOLT-4 leukemia, 10.9 µM and 11.7 µM; in the experiment on PC-3 prostate, 19.9 µM and 17.1 µM; with MDA-MB-231 breast it was 14.7 µM and 13.8 µM; in the experiment with A549 NSCLC, 15.8 µM and 15.4 µM; in the experiment on RPMI-8226 leukemia it was 14.9 µM and 16 µM. In addition, the GI50 in the experiment on SK-MEL-28 melanoma is 14.3 µM and 13.7 µM; in the experiment with MDA-MB-435, 11.9 µM and 10.7 µM; in the experiment with HCT-116 colon, 13.1 µM and 12.8 µM. Further, the TGI with UO-31 renal was 24.9 µM and 22.1 µM; with MOLT-4 leukemia it was more than 100 µM; in the experiment with PC-3 prostate, 66.8 µM and 48.2 µM; with MDA-MB-231 breast it was 29.8 µM and 28.4 µM; in the experiment with A549 NSCLC, 33.9 µM and 32.2 µM; in the experiment with RPMI-8226 leukemia, 47.5 µM and 47.8 µM. Moreover, the TGI was 27.8 µM and 27.2 µM in the experiment on SK-MEL-28 melanoma; 24.7 µM and 22.9 µM in the experiment with MDA-MB-435; 29.1 µM and 27.5 µM in the experiment with HCT-116 colon.
Turning to `CN1CCN(C(=S)N(C)C(=O)c2ccco2)CC1`, the TGI with UO-31 renal, in the experiment with MOLT-4 leukemia, in the experiment on MDA-MB-231 breast, in the experiment with UACC-62 melanoma, with A549 NSCLC and with RPMI-8226 leukemia was more than 100 µM throughout. Further, the TGI with MDA-MB-435 was more than 100 µM.
Turning to `CCSCCCSCCSCC`, the TGI in the experiment with UO-31 renal was more than 100 µM; with MOLT-4 leukemia, 84.5 µM; in the experiment on PC-3 prostate it was more than 100 µM; in the experiment with MDA-MB-231 breast, more than 100 µM; with UACC-62 melanoma, more than 100 µM; with A549 NSCLC it was more than 100 µM. The TGI in the experiment with SK-MEL-28 melanoma, with MDA-MB-435 and in the experiment with HCT-116 colon was more than 100 µM throughout.
In the case of `CC(C)=CCN1c2ccccc2NC(=O)CC1C` (stereo unspecified), the TGI in the experiment on UO-31 renal, in the experiment with MOLT-4 leukemia, with PC-3 prostate, in the experiment on MDA-MB-231 breast, in the experiment with A549 NSCLC and in the experiment with RPMI-8226 leukemia was more than 100 µM throughout. Moreover, the TGI in the experiment with SK-MEL-28 melanoma and with MDA-MB-435 was more than 100 µM throughout.
On to `O=C1C=CC(=O)c2c1ccc1c3ccccc3n(Cc3ccc([N+](=O)[O-])cc3)c21`, for which the TGI in the experiment on UO-31 renal is more than 100 µM; with MOLT-4 leukemia, 54.2 µM; with PC-3 prostate, more than 100 µM; in the experiment on MDA-MB-231 breast, more than 100 µM; in the experiment on UACC-62 melanoma, more than 100 µM; in the experiment with A549 NSCLC it was more than 100 µM. The TGI in the experiment with SK-MEL-28 melanoma, in the experiment on MDA-MB-435 and in the experiment with HCT-116 colon was more than 100 µM in each case.
Consider `COc1cccc(-c2nc3cc(NC(=O)c4ccc(Cl)c(C#N)c4)ccc3o2)c1`, for which the GI50 with UO-31 renal was 3.95 µM; in the experiment on MOLT-4 leukemia it was more than 100 µM; in the experiment on PC-3 prostate it was 2.96 µM; in the experiment with MDA-MB-231 breast, 3.28 µM; in the experiment with UACC-62 melanoma, 3.29 µM; in the experiment with A549 NSCLC, 1.88 µM. Moreover, the GI50 with MDA-MB-435 was 1.37 µM; in the experiment on HCT-116 colon, 1.8 µM. Moreover, the TGI is more than 100 µM in the experiment with UO-31 renal; more than 100 µM in the experiment on MOLT-4 leukemia; more than 100 µM in the experiment with PC-3 prostate; more than 100 µM in the experiment on MDA-MB-231 breast; more than 100 µM with UACC-62 melanoma; 3.8 µM in the experiment with A549 NSCLC. Moreover, the TGI in the experiment with MDA-MB-435 was determined as 2.85 µM; in the experiment on HCT-116 colon, 3.47 µM.
Consider `COc1cc2c(c3c1c(=O)c1ccccc1n3C)C=CC1(CCCC1)O2`, for which the TGI in the experiment on MOLT-4 leukemia is more than 100 µM; in the experiment on MDA-MB-231 breast it was 38.2 µM; with UACC-62 melanoma, 29.1 µM; in the experiment on A549 NSCLC it was 47.1 µM; in the experiment on RPMI-8226 leukemia it was 5.48 µM; in the experiment on SK-MEL-28 melanoma it was 28 µM. The figures for the TGI in the experiment on MDA-MB-435 and in the experiment on HCT-116 colon were 35 µM and 28.6 µM, respectively.
Turning to `CC1=C([Se]CC(OC(=O)CC[Se]c2ccccc2)C(=O)NC(C)(C)C)C(=O)c2ccccc2C1=O` (stereo unspecified), the GI50 in the experiment on UO-31 renal is 1.17 µM; in the experiment on MOLT-4 leukemia, 0.545 µM; in the experiment on PC-3 prostate, 1.48 µM; in the experiment on MDA-MB-231 breast it was 1.55 µM; in the experiment on UACC-62 melanoma, 1.48 µM; in the experiment with A549 NSCLC, 1.63 µM. In addition, the GI50 in the experiment with SK-MEL-28 melanoma was 2.08 µM; with MDA-MB-435, 2.21 µM; in the experiment with HCT-116 colon, 1.47 µM. For the same compound, the TGI was 2.43 µM in the experiment with UO-31 renal; 3.44 µM in the experiment with MOLT-4 leukemia; 2.8 µM in the experiment on PC-3 prostate; 3.01 µM in the experiment with MDA-MB-231 breast; 2.83 µM in the experiment on UACC-62 melanoma; 3.61 µM in the experiment with A549 NSCLC. Further, the TGI with SK-MEL-28 melanoma is 3.55 µM; in the experiment on MDA-MB-435, 4.7 µM; in the experiment with HCT-116 colon, 2.86 µM.
On to `c1ccc(C2ONC3=NCCN32)cc1` (stereo unspecified), for which the GI50 in the experiment on UO-31 renal is 27.3 µM; with MOLT-4 leukemia, 12.2 µM; in the experiment with PC-3 prostate it was 18.8 µM; in the experiment with MDA-MB-231 breast, 37.2 µM; with UACC-62 melanoma it was 39.4 µM; in the experiment with A549 NSCLC, 51.1 µM. In addition, the GI50 with SK-MEL-28 melanoma was more than 100 µM; in the experiment on MDA-MB-435, 93.9 µM; with HCT-116 colon, 30.3 µM. Besides, the TGI with UO-31 renal is more than 100 µM; in the experiment with MOLT-4 leukemia, 34.6 µM; in the experiment on PC-3 prostate it was 78.2 µM; in the experiment on MDA-MB-231 breast it was more than 100 µM; with UACC-62 melanoma it was more than 100 µM; in the experiment on A549 NSCLC, more than 100 µM. The TGI in the experiment on SK-MEL-28 melanoma, with MDA-MB-435 and in the experiment on HCT-116 colon was more than 100 µM in each case.
